The text below walks through data of patent publication US20060046972A1, “Cytotoxic nucleoside analog compound 003 for treating cancer” (Parker Hughes Institute, priority 2004, published 2006).

A short description of data set [1]: Pharmacokinetics in CD-1 mice after intravenous or oral Compound 003. It counts as in vivo. On the procedure: Each plasma sample (200 μL) was mixed 1:4 with acetone (800 μL) and vortexed for at least 30 seconds. Following centrifugation, the supernatant was transferred into a clean tube and dried under nitrogen. A 50 μL solution of 50% methanol in 200 mM HCl was used to reconstitute the extraction residue, and 35 μL was subjected to analytical HPLC. The analytical column used was a 250×4 mm Lichrospher 100, RP-18 (5 μm) and the guard column was a 4×4 mm Lichrospher 100, RP-18 (5 μm). The mobile phase was degassed automatically by the electronic degasser system. The column was equilibrated and eluted under gradient conditions utilizing a flow rate of 1.0 ml/min at ambient temperature. The linear gradient mobile phase was: 0 minute, 100% 10 mM ammonium phosphate buffer (pH 3.7); 20 minutes, 20% acetonitrile, 80% ammonium phosphate buffer (pH 3.7); 20.1-50 minutes, 28% acetonitrile, 72% water (0.1% HAC). The wavelength of detection was set at 270 nm. Peak width, response time and slit werep, set at >0.03 minutes, 0.5 s and 8 nm, respectively.
Female CD-1 mice (6-8 weeks old) (Charles River, Wilmington, Mass.) were housed in a USDA-accredited animal care facility under standard environmental conditions (12-h light/12-h dark photoperiod, 22±1° C., 60±10% relative humidity). All rodents were housed in microisolator cages (Lab Products, Inc., N.J.) containing autoclaved bedding. Mice were allowed free access to autoclaved pellet food and tap water throughout the study. All animal studies are approved by the Parker Hughes Institute Animal Care and Use Committee, and all animal care procedures conformed to the principles outlined in the Guide for the Care and Use of Laboratory Animals (National Research Council;. National Academy Press, Washington D.C. 1996).
Compound 003 (200 mg/kg) dissolved in DMSO was administered intravenously via tail vein to non-fasted mice or orally via gavage to 12-h fasted mice. Four to six mice per time-point were used for pharmacokinetic studies. Blood samples (˜500 μL) were obtained from the ocular venous plexus by retro-orbital venipuncture at 0, 5, 10, 15, 30, 45 minutes, and 1 h, 1.5 h, 2 h, 4 h, 6 h and 8 h after oral administration. All collected blood-samples were heparinized and centrifuged at 7000×g for 5 minutes to separate the plasma fraction from the whole blood. The plasma samples were then processed immediately using the extraction procedure described above.
Pharmacokinetic modeling and parameter calculations were carried out using the WinNonlin Professional Version 3.0 (Pharsight, Inc., Mountain, Calif.) pharmacokinetics software (Chen, C. L., et al., (1999) Pharm Res. 16:117; Chen, C. L., et al., (1999) Pharm Res. 16:1003; Uckun, F. M., et al., (1999) Clin Cancer Res. 5:2954). An appropriate model was chosen on the basis of the lowest sum of weighted squared residuals, the lowest Schwartz Criterion (SC), the lowest Akaike's Information Criterion (AIC) value, the lowest standard errors of the fitted parameters, and the dispersion of the residuals. The elimination half-life was estimated by linear regression analysis of the terminal phase of the plasma concentration-time profile. The systemic clearance (CL) was determined by dividing the dose by the AUC.

Data set [2] relates to human pre-B acute lymphoblastic leukemia (NALM-6). Description: DNA flow cytometry of cell cycle arrest, NALM-6. Particulars: 100 μM, 48 hour. It is filed as cell-based. How it is done:
Exponentially growing tumor cells were cultured at 1×10^6 cells/ml in clonogenic medium (RPMI 1640 medium +1% penicillin/streptomycin +10% heat-inactivated fetal bovine serum, 2 mML-glutamine, and 10 mM Hepes buffer) in the presence or absence of 100 μM compound 003 for 48 hour at 37° C., 5% CO2. At 48 h, cells were washed two times in fresh clonogenic medium, trypsinized, fixed in ice cold ethanol and labeled with propidium iodide to quantify their DNA content, as described previously (See, for example, Navara, et al., 2001, Anticancer Drugs. 12:369). Quantitative DNA analysis was performed on a Becton Dickenson Calibur flow cytometer equipped with a Consort 40 computer using the COTFIT program, which includes CELLCY, a cell cycle distribution function that fits DNA content histograms and calculates-the percentages of cells in G, S, and GM phases of the cell cycle, as described, for example, in Uckun et al., 1996, J Biol Chem. 271, 6389.
For orientation: A flow cytometer gives signals particle by particle.

`COC(=O)C(C)NP(=O)(OCC1OC(n2cc(C)c(=O)[nH]c2=O)CC1N=[N+]=[N-])Oc1ccc(OC)cc1` (stereo not drawn) [Compound 003, 3′-azidothymidine 5′-[p-methoxyphenylmethoxyalaninyl phosphate]]: the “in vivo transformation of parent compound” value in data set [1] (i.v. injection of 200 mg/kg) is “immediately transformed to Ala-AZT-MP and AZT”. Also, the “plasma concentration of parent compound” value in data set [1] (oral 200 mg/kg, below the detection limit) was less than 0.5 µM. Besides, the cell cycle arrest entry in data set [2] was “G2M cell cycle arrest”.
